Results taken from PMC4741607 (Oncotarget, 2015).
Like-named read-outs stand apart in the source and are kept apart here.

Legend:
H3255 (EGFR L858R) = assay: Proliferation (CellTiter-Glo), H3255; assay type: cell-based, human; conditions: Homo sapiens
H1975 (EGFR L858R/T790M) = assay: Proliferation (CellTiter-Glo), H1975; assay type: cell-based, human; conditions: Homo sapiens
PC-9 (EGFR Del19) = assay: Proliferation (CellTiter-Glo), PC-9; assay type: cell-based, human; conditions: Homo sapiens
HCC827 (EGFR Del19) = assay: Proliferation (CellTiter-Glo), HCC827; assay type: cell-based, human; conditions: Homo sapiens
H23 (EGFR wt) = assay: Proliferation (CellTiter-Glo), H23; assay type: cell-based, human; conditions: Homo sapiens
H460 (EGFR wt) = assay: Proliferation (CellTiter-Glo), H460; assay type: cell-based, human; conditions: Homo sapiens
A549 (EGFR wt) = assay: Proliferation (CellTiter-Glo), A549; assay type: cell-based, human; conditions: Homo sapiens
H358 (EGFR wt) = assay: Proliferation (CellTiter-Glo), H358; assay type: cell-based, human; conditions: Homo sapiens
A431 (EGFR wt) = assay: Proliferation (CellTiter-Glo), A431; assay type: cell-based, human; conditions: Homo sapiens
H2122 (EGFR wt) = assay: Proliferation (CellTiter-Glo), H2122; assay type: cell-based, human; conditions: Homo sapiens
H1975 EGFR (L858R/T790M) = assay: Colony formation assay, H1975; assay type: cell-based, human
PC-9 EGFR del 19 = assay: Colony formation assay, PC-9; assay type: cell-based, human
HCC827 EGFR Del 19 = assay: Colony formation assay, HCC827; assay type: cell-based, human
H3255 EGFR L858R = assay: Colony formation assay, H3255; assay type: cell-based, human
H460 cells = assay: Cell cycle analysis (FACS), H460; assay type: cell-based, human; conditions: H460, 48h, 0.3 μM
PC-9 cells = assay: Cell cycle analysis (FACS), PC-9; assay type: cell-based, human; conditions: PC-9, 24h, 0.3 μM
H3255 cells = assay: Cell cycle analysis (FACS), H3255; assay type: cell-based, human; conditions: H3255, 24h, 0.3 μM
HCC827 cells = assay: Cell cycle analysis (FACS), HCC827; assay type: cell-based, human; conditions: HCC827, 24 h, 0.3 μM
PC-9 xenograft = PC-9 xenograft mouse model; assay type: in vivo, Nude (Nu/Nu) mice; conditions: PC-9 xenograft, 25 mg/kg/day QD oral gavage
Description: (§1) Tumor diameter was measured 3 times weekly. Tumor volumes (V) were calculated by the equation (V = length × width × width/2). ALL experiments and procedures followed the guidelines of the Institutional Animal Care and Use Committees of National Institue of Biological Sciences, Beijing.

H1975 xenograft = H1975 xenograft mouse model; assay type: in vivo, Nude (Nu/Nu) mice; conditions: 25 mg/kg/day QD oral gavage
Description: as §1

C=CC(=O)Nc1cc(Nc2nccc(-c3cn(C)c4ccccc34)n2)c(OC)cc1N(C)CCN(C)C [AZD-9291, AZD9291]
GI50 (H3255 (EGFR L858R); NCI-H3255, 72 h): 31 nM | GI50 (H1975 (EGFR L858R/T790M); NCI-H1975, 72 h): […] | GI50 (PC-9 (EGFR Del19); 72 h): 3 nM | GI50 (HCC827 (EGFR Del19); HCC827, 72 h): 4 nM | GI50 (H23 (EGFR wt); 72 h): 4200 nM | GI50 (H460 (EGFR wt); NCI-H460, 72 h): 4000 nM | GI50 (A549 (EGFR wt); A549, 72 h): 5000 nM | GI50 (H358 (EGFR wt); NCI-H358, 72 h): 9400 nM | GI50 (A431 (EGFR wt); A-431, 72 h): […] | GI50 (H2122 (EGFR wt); NCI-H2122, 72 h): 7600 nM | EC50 (H1975 EGFR (L858R/T790M); Homo sapiens, NCI-H1975, 240 h, read-out: EC50 colony formation, H1975, 10 days): 118 nM | EC50 (H1975 EGFR (L858R/T790M); read-out: EC50 colony formation, H1975, 10 days): 118 nM | EC50 (PC-9 EGFR del 19; Homo sapiens, 240 h, read-out: EC50 colony formation, PC-9, 10 days): 2.51 nM | EC50 (HCC827 EGFR Del 19; Homo sapiens, HCC827, 240 h, read-out: EC50 colony formation, HCC827, 10 days): 1.23 nM | EC50 (HCC827 EGFR Del 19; read-out: EC50 colony formation, HCC827, 10 days): 1.2 nM | EC50 (H3255 EGFR L858R; Homo sapiens, NCI-H3255, 240 h, read-out: EC50 colony formation, H3255, 10 days): 5.59 nM | EC50 (H3255 EGFR L858R; read-out: EC50 colony formation, H3255, 10 days): 5.5 nM

C=CC(=O)Nc1cccc(Nc2nc(Nc3ccc(N4CCN(C(C)=O)CC4)cc3OC)ncc2C(F)(F)F)c1 [CO-1686]
GI50 (H3255 (EGFR L858R); NCI-H3255, H3255, EGFR L858R, 72 hours, read-out: GI50): 250 nM | GI50 (H1975 (EGFR L858R/T790M); NCI-H1975, H1975, EGFR L858R/T790M, 72 hours, read-out: GI50): 440 nM | GI50 (PC-9 (EGFR Del19); PC-9, EGFR Del19, 72 hours, read-out: GI50): 130 nM | GI50 (HCC827 (EGFR Del19); HCC827, EGFR Del19, 72 hours, read-out: GI50): 97 nM | GI50 (H23 (EGFR wt); H23, EGFR wt, 72 hours, read-out: GI50): 1400 nM | GI50 (H460 (EGFR wt); NCI-H460, H460, EGFR wt, 72 hours, read-out: GI50): 2500 nM | GI50 (A549 (EGFR wt); A549, EGFR wt, 72 hours, read-out: GI50): 830 nM | GI50 (H358 (EGFR wt); NCI-H358, H358, EGFR wt, 72 hours, read-out: GI50): 4800 nM | GI50 (A431 (EGFR wt); A-431, A431, EGFR wt, 72 hours, read-out: GI50): 1200 nM | GI50 (H2122 (EGFR wt); NCI-H2122, H2122, EGFR wt, 72 hours, read-out: GI50): 1400 nM | EC50 (H1975 EGFR (L858R/T790M); Homo sapiens, NCI-H1975, 240 h, H1975, 10 days, read-out: EC50 colony formation): 606 nM | EC50 (PC-9 EGFR del 19; Homo sapiens, 240 h, PC-9, 10 days, read-out: EC50 colony formation): 56.2 nM | EC50 (PC-9 EGFR del 19; PC-9, 10 days, read-out: EC50 colony formation): 56 nM | EC50 (HCC827 EGFR Del 19; HCC827, 10 days, read-out: EC50 colony formation): 11 nM | EC50 (HCC827 EGFR Del 19; Homo sapiens, HCC827, 240 h, HCC827, 10 days, read-out: EC50 colony formation): 11.5 nM | EC50 (H3255 EGFR L858R; Homo sapiens, NCI-H3255, 240 h, H3255, 10 days, read-out: EC50 colony formation): 211 nM | %G0-G1 (H460 cells): 51.62% | %G2-M (H460 cells): 8.78% | %G0-G1 (PC-9 cells): 85.49% | %G2-M (PC-9 cells): 8.97% | %G0-G1 (H3255 cells): 81.24% | %G2-M (H3255 cells): 9.84% | %G0-G1 (HCC827 cells): 83.96% | %G2-M (HCC827 cells): 3.62%

COc1cc2ncnc(Nc3ccc(F)c(Cl)c3)c2cc1OCCCN1CCOCC1 [Gefitinib]
anti-tumor activity (tumor growth) (PC-9 xenograft): almost completely suppressed the tumor growth | anti-tumor activity (tumor growth) (H1975 xenograft): completely lost the anti-tumor efficacy
